Experimental data reported in US10597392B2, “Tetrahydropyridopyrazines as modulators of GPR6” (Takeda Pharmaceutical Corporation Limited, priority 2014, dated 2020).

biological target: T1, GPR6 receptor expressed in CHO-K1 cells (Homo sapiens, UniProt P46095); experiment: Inhibition of cAMP Activity of GPR6 In Vitro Assay; type: cell-based; conditions: inhibition of constitutive cAMP activity of GPR6 in CHO-K1 cells, 45 min incubation, HTRF cAMP detection
T1 construct: expressed in transfected cells
Protocol: Inhibition of cAMP Activity of GPR6 In Vitro Assay
This cell based assay measures the ability of compounds to inhibit the constitutive cAMP activity of GPR6 receptor expressed in CHO-K1 cells. CHO cells were stably expressed with GPR6 receptor, whose expression is controlled by a tetracycline inducable element. The cells were cultured in medium containing F12K, 10% FBS, 1% Penn/Strep, 200 ug/mL Hygromycin. GPR6 receptor expression was induced for 20 hrs with 2 µg/ml doxycycline (sigma D9891) in growth media. After addition of doxycycline cells were plated at a density of 450-750 cells per well in 96-well half-volume black tissue culture plates (Costar) and placed in an incubator (37°, 5% CO2) for 20 hours prior to cAMP assays.
Culture media was removed from cells and they were washed with 50 µL/well of Ringer's Buffer (MgCl2 0.047 mg/mL, NaH2PO4 0.18 mg/mL, Na2HPO4 0.1 mg/mL, KCl 0.34 mg/mL, NaHCO3 1.26 mg/mL, D-glucose 1.8 mg/mL, NaCl 7 mg/mL; pH=7.4). Compounds suspended in DMSO were diluted in Ringer's Buffer containing 0.5% fatty acid free BSA plus 300 μM IBMX and incubated on cells for 45 min at 37° and 5% CO2. After incubation cells were incubated for 10 min at room temp with Eu-cAMP tracer solution from a Perkin Elmer Lance HTRF Ultra cAMP assay kit (TRF0263). Then ULight™-anti-cAMP solution from the Lance HTRF kit was added and incubated on a shaker at room temp for 1 hour prior to HTRF detection in a Perkin Elmer Envision plate reader.
IC50 curves were generated with a four-parameter logistic equation using GraphPad Prism 5.03.

T1 sequence (P46095 whole entry): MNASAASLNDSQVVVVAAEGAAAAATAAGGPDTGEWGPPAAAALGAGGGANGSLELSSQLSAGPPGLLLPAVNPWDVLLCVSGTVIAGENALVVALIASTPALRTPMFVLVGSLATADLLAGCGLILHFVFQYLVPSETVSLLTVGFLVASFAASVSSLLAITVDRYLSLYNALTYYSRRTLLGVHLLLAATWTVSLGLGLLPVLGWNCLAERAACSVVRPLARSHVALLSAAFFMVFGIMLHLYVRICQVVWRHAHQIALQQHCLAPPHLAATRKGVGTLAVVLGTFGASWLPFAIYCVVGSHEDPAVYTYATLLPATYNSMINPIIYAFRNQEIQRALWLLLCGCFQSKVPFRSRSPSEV

Row | SMILES | EC50 [nM]
1 | Cc1cc2nc(NC(C)C)c(N3CCC(Oc4ccc(F)cc4F)CC3)nc2cn1 [Example 2, 3-(4-(2,4-difluorophenoxy)piperidin-1-yl)-N-isopropyl-7-methylpyrido[3,4-b]pyrazin-2-amine] | 16.5
2 | COc1ccc(CN2CCN(c3nc4cc(C)ncc4nc3N[C@H]3CCOC3)CC2)c(F)c1 [Example 45, (S)-2-(4-(2-fluoro-4-methoxybenzyl)piperazin-1-yl)-7-methyl-N-(tetrahydrofuran-3-yl)pyrido[3,4-b]pyrazin-3-amine] | > 1000
3 | Cc1cc2nc(N3CCC(Oc4ccc(F)cc4F)CC3)c(NC(C)C)nc2cn1 [Example 35, 2-(4-(2,4-difluorophenoxy)piperidin-1-yl)-N-isopropyl-7-methylpyrido[3,4-b]pyrazin-3-amine] | 66.4
4 | Cc1cc2nc(N3CCN(Cc4ccc(OC(F)F)cc4F)CC3)c(NC(C)C)nc2cn1 [Example 46, 2-(4-(4-(difluoromethoxy)-2-fluorobenzyl)piperazin-1-yl)-N-isopropyl-7-methylpyrido[3,4-b]pyrazin-3-amine] | > 1000
5 | COc1ccc(CN2CCN(c3nc4cnc(C)cc4nc3NC(C)C)CC2)c(F)c1 [Example 22, 3-(4-(2-fluoro-4-methoxybenzyl)piperazin-1-yl)-N-isopropyl-7-methylpyrido[3,4-b]pyrazin-2-amine] | 37.3
6 | Cc1cc2nc(N3CCC(Oc4ccc(F)cc4F)CC3)c(N[C@H]3CCOC3)nc2cn1 [Example 37, (S)-2-(4-(2,4-difluorophenoxy)piperidin-1-yl)-7-methyl-N-(tetrahydrofuran-3-yl)pyrido[3,4-b]pyrazin-3-amine] | 128
7 | Cc1cc2nc(NC(C)C)c(N3CCC(Oc4ccc(OC(F)F)cc4F)CC3)nc2cn1 [Example 18, 3-(4-(4-(difluoromethoxy)-2-fluorophenoxy)piperidin-1-yl)-N-isopropyl-7-methylpyrido[3,4-b]pyrazin-2-amine] | 39.9
8 | Cc1cc2nc(N3CCN(Cc4ccc(F)cc4F)CC3)c(N[C@@H]3CCOC3)nc2cn1 [Example 33] | 102
9 | Cc1cc2nc(N[C@H]3CCOC3)c(N3CCN(Cc4ccc(OC(F)F)cc4F)CC3)nc2cn1 [Example 29, (S)-3-(4-(4-(difluoromethoxy)-2-fluorobenzyl)piperazin-1-yl)-7-methyl-N-(tetrahydrofuran-3-yl)pyrido[3,4-b]pyrazin-2-amine] | > 1000
10 | Cc1cc2nc(N3CCC(Oc4ccc(OC(F)F)cc4F)CC3)c(NC3CC3)nc2cn1 [Example 39, N-cyclopropyl-2-(4-(4-(difluoromethoxy)-2-fluorophenoxy)piperidin-1-yl)-7-methylpyrido[3,4-b]pyrazin-3-amine] | > 5000
11 | Cc1cc2nc(N[C@H]3C[C@H](O)C3)c(N3CCC(Oc4ccc(F)cc4F)CC3)nc2cn1 [Example 13, trans-3-((3-(4-(2,4-difluorophenoxy)piperidin-1-yl)-7-methylpyrido[3,4-b]pyrazin-2-yl)amino)cyclobutanol] | 48.2
12 | COc1ccc(CN2CCN(c3nc4cnc(C)cc4nc3N[C@@H]3CCOC3)CC2)c(F)c1 [Example 24, (R)-3-(4-(2-fluoro-4-methoxybenzyl)piperazin-1-yl)-7-methyl-N-(tetrahydrofuran-3-yl)pyrido[3,4-b]pyrazin-2-amine] | 311
13 | COc1ccc(CN2CCN(c3nc4cc(C)ncc4nc3NC3CC3)CC2)c(F)c1 [Example 43, N-cyclopropyl-2-(4-(2-fluoro-4-methoxybenzyl)piperazin-1-yl)-7-methylpyrido[3,4-b]pyrazin-3-amine] | > 1000
14 | Cc1cc2nc(N[C@H]3C[C@@H](O)C3)c(N3CCC(Oc4ccc(F)cc4F)CC3)nc2cn1 [Example 9, cis-3-((3-(4-(2,4-difluorophenoxy)piperidin-1-yl)-7-methylpyrido[3,4-b]pyrazin-2-yl)amino)cyclobutanol] | 52.3

tested on: Haloperidol-Induced Catalepsy; experiment: Haloperidol-Induced Catalepsy, In Vivo Rodent Parkinson's Disease Model; conditions: Rat, dose 1 mg/kg, sc
From the text: Haloperidol-Induced Catalepsy—In Vivo Rodent Parkinson's Disease Model
The motor symptoms of Parkinson's disease include akinesia, bradykinesia, rigidity, tremor and postural abnormalities and are associated with the loss of nigral dopaminergic cells and a decline in striatal dopamine levels. Administration of haloperidol to rodents leads to a transient parkinsonian-like state that is reversed by the administration of L-Dopa (Duty, S.; Jenner, P. Br. J. Pharmacol. (2011), 164, 1357-1391) and other drugs that have been clinically validated for the treatment of Parkinson's disease. Haloperidol antagonizes dopamine D2 and, to a lesser extent, D1 receptors in medium spiny neurons that comprise the indirect and direct pathways of the motor circuit respectively. The resultant block of striatal dopamine transmission results in abnormal downstream firing within the basal ganglia circuits that is manifest as symptoms of muscle rigidity and catalepsy. Catalepsy has been postulated to reflect the clinical features of Parkinson's disease, whereby patients experience an inability of to initiate movements.
Male Sprague-Dawley rats (Charles River, Calco, Italy) weighing 175-200 g are used. Alternatively, male C57Bl6 mice weighing 25-35 g were used. The cataleptic state was induced by the subcutaneous administration of the dopamine receptor antagonist haloperidol (0.3 mg/kg, sc), 90 min before testing the animals on the vertical grid test. […] The time span from placement of the paws until the first complete removal of one paw (descent latency) was measured maximally for 120 sec for rats. For mice, the front paws of a mouse was placed on a horizontal metal bar raised 2″ above a Plexiglas platform and time was recorded for up to 30 seconds per trial. […]
Catalepsy was measured 30 min, […], and/or […] after dosing the subjects a 1.0 mg/kg i.p. dose of haloperidol along with the GPR6 modulator test compound. Test compound plasma and brain levels were determined by collected tissue samples at the end of the experiment, which was either at the 120 or 240 min time point. […]

Row | SMILES | % reversal at 90 min [%]
15 | Cc1cc2nc(NC3CC3)c(N3CCN(Cc4ccc(F)cc4F)CC3)nc2cn1 [Example 7, N-cyclopropyl-3-(4-(2,4-difluorobenzyl)piperazin-1-yl)-7-methylpyrido[3,4-b]pyrazin-2-amine] | 33.5

same assay, conditions: Rat, dose 10 mg/kg, sc

Row | SMILES | % reversal at 90 min [%]
16 | Cc1cc2nc(NC3CC3)c(N3CCN(Cc4ccc(F)cc4F)CC3)nc2cn1 [Example 7, N-cyclopropyl-3-(4-(2,4-difluorobenzyl)piperazin-1-yl)-7-methylpyrido[3,4-b]pyrazin-2-amine] | 63.6

same assay, conditions: Rat, dose 30 mg/kg, sc

Row | SMILES | % reversal at 90 min [%]
17 | Cc1cc2nc(NC3CC3)c(N3CCN(Cc4ccc(F)cc4F)CC3)nc2cn1 [Example 7, N-cyclopropyl-3-(4-(2,4-difluorobenzyl)piperazin-1-yl)-7-methylpyrido[3,4-b]pyrazin-2-amine] | 42.8
